According to patent US20240254103A9, “NOVEL PYRIMIDINE DERIVATIVE, AND COMPOSITION FOR PREVENTING OR TREATING NEURODEGENERATIVE DISEASES AND CANCER, COMPRISING SAME” (WHAN IN PHARMACEUTICAL CO., LTD., priority 2020, published 2024):

Legend:
mutant LRRK2 (G2019S) = molecular target: T1, mutant LRRK2 (G2019S) (Homo sapiens, UniProt Q5S007, G2019S); test: Inhibitory activity against LRRK2: competition binding to ligand-affinity beads, DNA-tagged kinase quantitated by qPCR; details: 100 nM compound; % of ctrl; read-out: Remaining kinase activity(%) at 100 nM LRRK2(G2019Smutant)
T1 construct: DNA tag for qPCR detection (not a peptide; the protein part that carries it is not described); made in house; host or cells: HEK 293 cells (the same paragraph also describes T7 phage grown in E. coli BL21)
T1 sequence (Q5S007 970-2527 G2019S): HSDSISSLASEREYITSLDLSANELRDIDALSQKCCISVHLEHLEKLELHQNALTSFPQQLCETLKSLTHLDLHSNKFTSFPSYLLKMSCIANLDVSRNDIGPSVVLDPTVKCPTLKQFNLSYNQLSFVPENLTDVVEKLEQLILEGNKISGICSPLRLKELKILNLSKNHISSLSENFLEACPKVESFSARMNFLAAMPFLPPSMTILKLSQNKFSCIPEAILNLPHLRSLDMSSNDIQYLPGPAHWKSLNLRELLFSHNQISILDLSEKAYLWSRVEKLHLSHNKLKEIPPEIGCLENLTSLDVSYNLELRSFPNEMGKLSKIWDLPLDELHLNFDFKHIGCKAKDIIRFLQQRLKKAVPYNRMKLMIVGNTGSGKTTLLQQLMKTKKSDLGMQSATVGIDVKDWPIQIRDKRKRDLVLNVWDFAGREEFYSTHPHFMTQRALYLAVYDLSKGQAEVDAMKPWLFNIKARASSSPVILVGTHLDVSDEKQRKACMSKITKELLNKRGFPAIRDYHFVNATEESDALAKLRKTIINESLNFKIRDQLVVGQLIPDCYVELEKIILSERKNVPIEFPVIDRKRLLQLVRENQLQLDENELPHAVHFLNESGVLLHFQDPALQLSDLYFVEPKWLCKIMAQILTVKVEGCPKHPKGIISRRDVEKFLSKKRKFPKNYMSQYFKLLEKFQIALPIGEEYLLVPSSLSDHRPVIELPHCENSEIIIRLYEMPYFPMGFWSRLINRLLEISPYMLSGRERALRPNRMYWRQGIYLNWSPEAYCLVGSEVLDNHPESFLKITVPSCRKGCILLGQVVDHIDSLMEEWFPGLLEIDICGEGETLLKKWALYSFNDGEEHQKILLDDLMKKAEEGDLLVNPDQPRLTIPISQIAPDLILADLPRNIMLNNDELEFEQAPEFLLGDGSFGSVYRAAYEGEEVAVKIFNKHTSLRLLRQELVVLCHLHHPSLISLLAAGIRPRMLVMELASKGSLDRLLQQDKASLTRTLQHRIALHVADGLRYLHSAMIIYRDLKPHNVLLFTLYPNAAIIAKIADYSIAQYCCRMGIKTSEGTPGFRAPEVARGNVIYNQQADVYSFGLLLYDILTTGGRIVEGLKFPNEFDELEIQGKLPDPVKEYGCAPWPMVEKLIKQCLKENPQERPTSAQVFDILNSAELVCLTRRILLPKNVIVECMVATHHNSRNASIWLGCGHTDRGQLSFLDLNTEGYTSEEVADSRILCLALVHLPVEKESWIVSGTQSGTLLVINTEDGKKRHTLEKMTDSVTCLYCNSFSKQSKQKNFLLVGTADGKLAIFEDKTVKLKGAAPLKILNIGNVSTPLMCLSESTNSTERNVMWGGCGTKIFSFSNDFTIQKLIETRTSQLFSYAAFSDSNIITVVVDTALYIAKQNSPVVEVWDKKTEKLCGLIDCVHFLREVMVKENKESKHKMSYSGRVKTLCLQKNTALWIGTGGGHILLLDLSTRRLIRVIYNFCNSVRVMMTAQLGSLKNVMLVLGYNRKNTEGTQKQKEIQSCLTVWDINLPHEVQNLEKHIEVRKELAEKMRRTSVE
In short: (§1)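 Human LRRK2 H970–E2527, wild type or G2019S, was expressed as DNA-tagged kinase (T7 phage in E. coli or HEK293) and competed for 1 h against a biotinylated ligand on streptavidin beads. Bound kinase was eluted with 0.5 µM free ligand and quantified by qPCR. Values are % of control at 100 nM (both forms) and at 10 and 50 nM (wild type).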

wild-type LRRK2 = molecular target: T2, wild-type LRRK2 (Homo sapiens, UniProt Q5S007); test: as above; details: % of ctrl; for remaining binding at 0.1 µM: 100 nM compound, read-out: Remaining kinase activity(%) at 100 nM LRRK2(WT); for remaining binding at 0.01 µM: 10 nM compound, read-out: LRRK2(WT) Remaining kinase activity(%) at 10 nM; for remaining binding at 0.05 µM: 50 nM compound, read-out: LRRK2(WT) Remaining kinase activity(%) at 50 nM
T2 construct: DNA tag for qPCR detection (not a peptide; the protein part that carries it is not described); made in house; host or cells: HEK 293 cells (the same paragraph also describes T7 phage grown in E. coli BL21)
T2 sequence (Q5S007 970-2527): as the sequence (Q5S007 970-2527 G2019S) above, with S1050G counted along it
In short: as §1

Compound | remaining binding at 0.1 µM (mutant LRRK2 (G2019S)) [%] | remaining binding at 0.1 µM (wild-type LRRK2) [%] | remaining binding at 0.01 µM (wild-type LRRK2) [%] | remaining binding at 0.05 µM (wild-type LRRK2) [%]
COc1cc(C(=O)N2CCOCC2)ccc1Nc1ncc(Cl)c(-c2ccccc2)n1 [Comparative Compound 1, (4-((5-chloro-4-phenylpyrimidin-2-yl)amino)-3-methoxyphenyl)(morpholino)methanone, reference compound] | ≥ 50 | ≥ 50 | – | –
COc1cc(C(=O)N2CCOCC2)ccc1Nc1ncc(Cl)c(-c2cccnc2)n1 [Comparative Compound 2, (4-((5-chloro-4-(pyridin-3-yl)pyrimidin-2-yl)amino)-3-methoxyphenyl) (morpholino)methanone, reference compound] | ≥ 50 | ≥ 50 | – | –
COc1cc(C(=O)N2CCOCC2)ccc1Nc1ncc(Cl)c(-c2cccc([N+](=O)[O-])c2)n1 [Comparative Compound 3, (4-((5-chloro-4-(3-nitrophenyl)pyrimidin-2-yl)amino) -3-methoxyphenyl)(morpholino)methanone, reference compound] | ≥ 50 | ≥ 50 | – | –
COc1cc(C(=O)N2CCOCC2)ccc1Nc1ncc(Cl)c(-c2cnn(C)c2)n1 [Compound 1, (4-((5-chloro-4-(1-methyl-1H-pyrazol-4-yl)pyrimidin-2-yl)amino)-3-methoxyphenyl)(morpholino)methanone] | < 30 | < 30 | – | –
COc1cc(C(=O)N2CCC(N3CCOCC3)CC2)ccc1Nc1ncc(Cl)c(-c2cnn(C)c2)n1 [Compound 2, (4-((5-chloro-4-(1-methyl-1H-pyrazol-4-yl)pyrimidin-2-yl)amino)-3-methoxyphenyl) (4-morpholinopiperidin-1-yl)methanone] | < 10 | < 10 | – | –
COc1cc(C(=O)N2CCOCC2)ccc1Nc1ncc(Cl)c(-c2cnn(CCO)c2)n1 [Compound 4, (4-((5-chloro-4-(1-(2-hydroxyethyl)-1H-pyrazol-4-yl)pyrimidin-2-yl)amino)-3-methoxyphenyl)(morpholino)methanone] | < 30 | < 30 | – | –
COc1cc(C(=O)N2CCOCC2)ccc1Nc1ncc(Cl)c(-c2cnn(CCC#N)c2)n1 [Compound 5, 3-(4-(5-chloro-2-((2-methoxy-4-(morpholine-4-carbonyl)phenyl)amino)pyrimidin-4-yl)-1H-pyrazol-1-yl)propanenitrile] | < 10 | < 10 | – | –
COc1cc(C(=O)N2CCOCC2)ccc1Nc1ncc(Cl)c(-c2cnn(CC#N)c2)n1 [Compound 6, 2-(4-(5-chloro-2-((2-methoxy-4-(morpholine-4-carbonyl)phenyl)amino)pyrimidin-4-yl)-1H-pyrazol-1-yl)acetonitrile] | < 30 | < 50 | – | –
COc1cc(C(=O)N2CCOCC2)ccc1Nc1ncc(Cl)c(-c2cnn(C(C)CC#N)c2)n1 (stereo not drawn) [Compound 7, 3-(4-(5-chloro-2-((2-methoxy-4-(morpholine-4-carbonyl)phenyl)amino)pyrimidin-4-yl)-1H-pyrazol-1-yl)butanenitrile] | < 10 | < 10 | – | –
COc1cc(C(=O)N2CCOCC2)ccc1Nc1ncc(Cl)c(-c2cnn(S(C)(=O)=O)c2)n1 [Compound 10, (4-((5-chloro-4-(1-(methylsulfonyl)-1H-pyrazol-4-yl)pyrimidin-2-yl)amino)-3-methoxyphenyl)(morpholino)methanone] | < 10 | < 30 | – | –
COc1cc(C(=O)N2CCOCC2)ccc1Nc1ncc(Cl)c(-c2cnn(C(F)F)c2)n1 [Compound 15, (4-((5-chloro-4-(1-(difluoromethyl)-1H-pyrazol-4-yl)pyrimidin-2-yl)amino)-3-methoxyphenyl)(morpholino)methanone] | < 30 | < 50 | – | –
COCn1cc(-c2nc(Nc3ccc(C(=O)N4CCOCC4)cc3OC)ncc2Cl)cn1 [Compound 16, (4-((5-chloro-4-(1-(methoxymethyl)-1H-pyrazol-4-yl)pyrimidin-2-yl)amino)-3-methoxyphenyl)(morpholino)methanone] | < 10 | < 30 | – | –

The next lines start with the values.

remaining binding at 0.1 µM (mutant LRRK2 (G2019S)) [%] | remaining binding at 0.1 µM (wild-type LRRK2) [%] | remaining binding at 0.01 µM (wild-type LRRK2) [%] | remaining binding at 0.05 µM (wild-type LRRK2) [%] | Compound
< 50 | < 30 | – | – | COc1ccc(Cn2cc(-c3nc(Nc4ccc(C(=O)N5CCOCC5)cc4OC)ncc3Cl)cn2)cc1 [Compound 17, (4-((5-chloro-4-(1-(4-methoxybenzyl)-1H-pyrazol-4-yl)pyrimidin-2-yl)amino)-3-methoxyphenyl)(morpholino)methanone]
< 30 | < 30 | – | – | COc1cc(C(=O)N2CCOCC2)ccc1Nc1ncc(Cl)c(-c2cn[nH]c2)n1 [Compound 18, (4-((5-chloro-4-(1H-pyrazol-4-yl)pyrimidin-2-yl)amino)-3-methoxyphenyl)(morpholino)methanone]
< 10 | < 10 | – | – | COc1cc(C(=O)N2CCC(N3CCN(C)CC3)CC2)ccc1Nc1ncc(Cl)c(-c2cnn(C)c2)n1 [Compound 19, (4-((5-chloro-4-(1-methyl-1H-pyrazol-4-yl)pyrimidin-2-yl)amino)-3-methoxyphenyl)(4-(4-methylpiperazin-1-yl)piperidin-1-yl)methanone]
< 10 | < 10 | – | – | COc1cc(C(=O)N2CCOCC2)ccc1Nc1ncc(Cl)c(-c2cnn(C3CCOCC3)c2)n1 [Compound 20, (4-((5-chloro-4-(1-(tetrahydro-2H-pyran-4-yl)-1H-pyrazol-4-yl)pyrimidin-2-yl)amino)-3-methoxyphenyl)(morpholino)methanone]
< 30 | < 30 | – | – | COCCN(C)C(=O)c1ccc(Nc2ncc(Cl)c(-c3cnn(C)c3)n2)c(OC)c1 [Compound 21, 4-((5-chloro-4-(1-methyl-1H-pyrazol-4-yl)pyrimidin-2-yl)amino)-3-methoxy-N-(2-methoxyethyl)-N-methylbenzamide]
< 50 | < 30 | – | – | COc1cc(C(=O)N2CCCC2)ccc1Nc1ncc(Cl)c(-c2cnn(C)c2)n1 [Compound 22, (4-((5-chloro-4-(1-methyl-1H-pyrazol-4-yl)pyrimidin-2-yl)amino)-3-methoxyphenyl)(pyrrolidin-1-yl)methanone]
< 50 | < 50 | – | – | CCN(CCOC)C(=O)c1ccc(Nc2ncc(Cl)c(-c3cnn(C)c3)n2)c(OC)c1 [Compound 23, 4-((5-chloro-4-(1-methyl-1H-pyrazol-4-yl)pyrimidin-2-yl)amino)-N-ethyl-3-methoxy-N-(2-methoxyethyl)benzamide]
< 50 | < 30 | – | – | COc1cc(C(=O)NC(C)(C)CO)ccc1Nc1ncc(Cl)c(-c2cnn(C)c2)n1 [Compound 24, 4-((5-chloro-4-(1-methyl-1H-pyrazol-4-yl)pyrimidin-2-yl)amino)-N-(1-hydroxy-2-methylpropan-2-yl)-3-methoxybenzamide]
< 50 | < 30 | – | – | COc1cc(C(=O)NC(C)(C)C)ccc1Nc1ncc(Cl)c(-c2cnn(C)c2)n1 [Compound 25, N-(tert-butyl)-4-((5-chloro-4-(1-methyl-1H-pyrazol-4-yl)pyrimidin-2-yl)amino)-3-methoxybenzamide]
< 50 | < 50 | – | – | COc1cc(C(=O)NCC(C)(C)O)ccc1Nc1ncc(Cl)c(-c2cnn(C)c2)n1 [Compound 26, 4-((5-chloro-4-(1-methyl-1H-pyrazol-4-yl)pyrimidin-2-yl)amino)-N-(2-hydroxy-2-methylpropyl)-3-methoxybenzamide]
< 10 | < 10 | – | – | COc1cc(C(=O)N2CCOCC2)ccc1Nc1ncc(Cl)c(-c2cnn(C(C)(C)CC#N)c2)n1 [Compound 27, 3-(4-(5-chloro-2-((2-methoxy-4-(morpholine-4-carbonyl)phenyl)amino)pyrimidin-4-yl)-1H-pyrazol-1-yl)-3-methylbutanenitrile]
< 30 | < 30 | – | – | COCCn1cc(-c2nc(Nc3ccc(C(=O)N4CCOCC4)cc3OC)ncc2Cl)cn1 [Compound 28, (4-((5-chloro-4-(1-(2-methoxyethyl)-1H-pyrazol-4-yl)pyrimidin-2-yl)amino)-3-methoxyphenyl)(morpholino)methanone]
– | – | ≥ 50 | < 50 | COc1cc(C(=O)Nc2ccc3c(c2)CCN3C(C)=O)ccc1Nc1ncc(Cl)c(-c2cnn(C(C)C)c2)n1 [Compound 212, N-(1-acetylindolin-5-yl)-4-((5-chloro-4-(1-isopropyl-1H-pyrazol-4-yl)pyrimidin-2-yl)amino)-3-methoxybenzamide]
– | – | < 50 | < 10 | COc1cc(C(=O)N2CCC(N3CCCC3)CC2)ccc1Nc1ncc(Cl)c(-c2cnn(C(C)C)c2)n1 [Compound 216, (4-((5-chloro-4-(1-isopropyl-1H-pyrazol-4-yl)pyrimidin-2-yl)amino)-3-methoxyphenyl)(4-(pyrrolidin-1-yl)piperidin-1-yl)methanone]
– | – | < 30 | < 10 | COc1cc(C(=O)N2CCC(N3CCCCC3)CC2)ccc1Nc1ncc(Cl)c(-c2cnn(C(C)C)c2)n1 [Compound 217, [1,4′-bipiperidin]-1′-yl(4-((5-chloro-4-(1-isopropyl-1H-pyrazol-4-yl)pyrimidin-2-yl)amino)-3-methoxyphenyl)methanone]
